Measurements taken from patent US20250353841A1 (BIOGEN MA INC., priority 2022, published 2025).

Tested on: mutant Huntington (HTT) protein
Experiment: HTT Mutant HTRF iPSC assay (mHTT protein lowering)
Format: cell-based
Settings: human iPSC derived from a HTT patient with a poly-Q49 mutation

Structure (SMILES)	IC50 [nM]
Cc1cn2cc(-c3cc(F)c4nn(C5CCNCC5)cc4c3)cc2c(C)n1 [Compound 369, 5-(1,3-dimethylpyrrolo[1,2-a]pyrazin-7-yl)-7-fluoro-2-(piperidin-4-yl)-2H-indazole]	< 100
Cc1cn2nc(-c3cc(F)c4nn(C5CCN(C)CC5)cc4c3)cc2c(C)n1 [Compound 371, 2-(7-fluoro-2-(1-methylpiperidin-4-yl)-2H-indazol-5-yl)-4,6-dimethylpyrazolo[1,5-a]pyrazine]	100 to 1000
Cc1cn2nc(-c3cc(F)c4nn(C5CCN(CC6CC6)CC5)cc4c3)cc2c(C)n1 [Compound 372, 2-(2-(1-(cyclopropylmethyl)piperidin-4-yl)-7-fluoro-2H-indazol-5-yl)-4,6-dimethylpyrazolo[1,5-a]pyrazine]	< 100
COCCN1CCC(n2cc3cc(-c4cc(C(F)(F)F)c5nc(C)cn5n4)cc(F)c3n2)CC1 [Compound 373, 6-(7-fluoro-2-(1-(2-methoxyethyl)piperidin-4-yl)-2H-indazol-5-yl)-2-methyl-8-(trifluoromethyl)imidazo [1,2-b]pyridazine]	< 100
Cc1cn2nc(-c3cc(F)c4nn(C5CCNCC5)nc4c3)cc(C(F)F)c2n1 [Compound 374, 6-[8-(difluoromethyl)-2-methyl-imidazo[1,2-b]pyridazin-6-yl]-4-fluoro-2-(4-piperidyl)benzotriazole]	< 100
Cc1cn2nc(-c3cc(F)c4nn(C5CCN(C)CC5)nc4c3)cc(C(F)F)c2n1 [Compound 375, 6-[8-(difluoromethyl)-2-methyl-imidazo[1,2-b]pyridazin-6-yl]-4-fluoro-2-(1-methyl-4-piperidyl)benzotriazole]	100 to 1000
CCN1CCC(n2nc3cc(-c4cc(C)c5nc(C)cn5n4)cc(F)c3n2)CC1 [Compound 376, 6-(2,8-dimethylimidazo[1,2-b]pyridazin-6-yl)-2-(1-ethyl-4-piperidyl)-4-fluoro-benzotriazole]	100 to 1000
CCN1CCC(n2nc3cc(-c4cc(C(F)F)c5nc(C)cn5n4)cc(F)c3n2)CC1 [Compound 377, 6-(8-(difluoromethyl)-2-methylimidazo[1,2-b]pyridazin-6-yl)-2-(1-ethylpiperidin-4-yl)-4-fluoro-2H-benzo[d][1,2,3]triazole]	100 to 1000
Cc1cn2cc(-c3cc(F)c4nn(C5CCNCC5)nc4c3)cc2c(C)n1 [Compound 378, 6-(1,3-dimethylpyrrolo[1,2-a]pyrazin-7-yl)-4-fluoro-2-(piperidin-4-yl)-2H-benzo[d][1,2,3]triazole]	100 to 1000
CCc1nc(C)cn2cc(-c3cc(F)c4nn(C5CCNCC5)nc4c3)cc12 [Compound 379, 6-(1-ethyl-3-methylpyrrolo[1,2-a]pyrazin-7-yl)-4-fluoro-2-(piperidin-4-yl)-2H-benzo[d][1,2,3]triazole]	100 to 1000
Cc1cn2nc(-c3cc(F)c4nn(C5CCN(C)CC5)nc4c3)cc(C)c2n1 [Compound 380, 6-(2,8-dimethylimidazo[1,2-b]pyridazin-6-yl)-4-fluoro-2-(1-methyl-4-piperidyl)benzotriazole]	100 to 1000
Cc1cc(-c2cc(F)c3nn(C4CCNCC4)nc3c2)nc2cn(C)nc12 [Compound 381, 6-(2,7-dimethyl-2H-pyrazolo[4,3-b]pyridin-5-yl)-4-fluoro-2-(piperidin-4-yl)-2H-benzo[d][1,2,3]triazole]	100 to 1000
Cn1cc2cc(-c3cc(F)c4nn(C5CCNCC5)nc4c3)cc(C(F)F)c2n1 [Compound 382, 6-(7-(difluoromethyl)-2-methyl-2H-indazol-5-yl)-4-fluoro-2-(piperidin-4-yl)-2H-benzo[d][1,2,3]triazole]	100 to 1000
Cc1cn2nc(-c3cc(F)c4nn(CC5CNC5)nc4c3)cc(C)c2n1 [Compound 383, 2-(azetidin-3-ylmethyl)-6-(2,8-dimethylimidazo[1,2-b]pyridazin-6-yl)-4-fluoro-2H-benzo[d][1,2,3]triazole]	100 to 1000
Cc1cn2nc(-c3cc(F)c4nn(C5CCNCC5)nc4c3)ccc2n1 [Compound 384, 4-fluoro-6-(2-methylimidazo[1,2-b]pyridazin-6-yl)-2-(piperidin-4-yl)-2H-benzo[d][1,2,3]triazole]	100 to 1000
Cc1cn2nc(-c3cc(F)c4nn(C5CC6(CNC6)C5)nc4c3)cc(C)c2n1 [Compound 385, 6-(2,8-dimethylimidazo[1,2-b]pyridazin-6-yl)-4-fluoro-2-(2-azaspiro[3.3]heptan-6-yl)-2H-benzo[d][1,2,3]triazole]	100 to 1000
Cc1cn2nc(-c3cc(F)c4nn(CC5CCNC5)nc4c3)cc(C)c2n1 (stereo not drawn) [Compound 386, 6-(2,8-dimethylimidazo[1,2-b]pyridazin-6-yl)-4-fluoro-2-(pyrrolidin-3-ylmethyl)-2H-benzo[d][1,2,3]triazole]	< 100
Cc1cn2nc(-c3cc(F)c4nn(C5CCNCC5)nc4c3)cc(C3CC3)c2n1 [Compound 387, 6-(8-cyclopropyl-2-methylimidazo[1,2-b]pyridazin-6-yl)-4-fluoro-2-(piperidin-4-yl)-2H-benzo[d][1,2,3]triazole]	100 to 1000

Structure (SMILES)	IC50 [nM]
Cc1cn2nc(-c3cc(F)c4nn(C5CCNCC5)nc4c3)cc2c(C)n1 [Compound 388, 6-(4,6-dimethylpyrazolo[1,5-a]pyrazin-2-yl)-4-fluoro-2-(piperidin-4-yl)-2H-benzo[d][1,2,3]triazole]	100 to 1000
CCc1cc(-c2cc(F)c3nn(C4CCNCC4)nc3c2)nn2cc(C)nc12 [Compound 389, 6-(8-ethyl-2-methylimidazo[1,2-b]pyridazin-6-yl)-4-fluoro-2-(piperidin-4-yl)-2H-benzo[d][1,2,3]triazole]	100 to 1000
Cc1nc2c(C)cc(-c3cc(F)c4nn(C5CCNCC5)nc4c3)nn2n1 [Compound 390, 6-(7-fluoro-2-(piperidin-4-yl)-2H-benzo[d][1,2,3]triazol-5-yl)-2,8-dimethyl-[1,2,4]triazolo[1,5-b]pyridazine]	100 to 1000
Cc1nc2c(C(F)(F)F)cc(-c3cc(F)c4nn(C5CCNCC5)nc4c3)nn2n1 [Compound 391, 6-(7-fluoro-2-(piperidin-4-yl)-2H-benzo[d][1,2,3]triazol-5-yl)-2-methyl-8-(trifluoromethyl)-[1,2,4]triazolo[1,5-b]pyridazine]	< 100
COc1cc(-c2cc(F)c3nn(C4CCNCC4)nc3c2)nn2nc(C)nc12 [Compound 392, 6-(7-fluoro-2-(piperidin-4-yl)-2H-benzo[d][1,2,3]triazol-5-yl)-8-methoxy-2-methyl-[1,2,4]triazolo[1,5-b]pyridazine]	100 to 1000
Cc1cn2nc(-c3cc(F)c4nn(C5CC6(CCNCC6)C5)nc4c3)cc(C)c2n1 [Compound 395, 6-(2,8-dimethylimidazo[1,2-b]pyridazin-6-yl)-4-fluoro-2-(7-azaspiro[3.5]nonan-2-yl)-2H-benzo[d][1,2,3]triazole]	< 100
Cc1cn2nc(-c3cc(F)c4nn(C5CCC6(CCNC6)C5)nc4c3)cc(C)c2n1 (stereo not drawn) [Compound 396, 6-(2,8-dimethylimidazo[1,2-b]pyridazin-6-yl)-4-fluoro-2-(2-azaspiro[4.4]nonan-7-yl)-2H-benzo[d][1,2,3]triazole]	100 to 1000
Cc1cn2nc(-c3cc(F)c4nn(C5CC6(CCNC6)C5)nc4c3)cc(C)c2n1 (stereo not drawn) [Compound 398, 6-(2,8-dimethylimidazo[1,2-b]pyridazin-6-yl)-4-fluoro-2-(6-azaspiro[3.4]octan-2-yl)-2H-benzo[d][1,2,3]triazole]	< 100
COCCN1CCC(c2nc3cc(-c4cc(C)c5nc(C)cn5n4)cc(F)c3[nH]2)CC1 [Compound 417, 6-(7-fluoro-2-(1-(2-methoxyethyl)piperidin-4-yl)-1H-benzo[d]imidazol-5-yl)-2,8-dimethylimidazo[1,2-b]pyridazine]	100 to 1000
Cc1cn2nc(-c3cc(F)c4[nH]c(C5CCNC(C)C5)nc4c3)cc(C)c2n1 (stereo not drawn) [Compound 418, 6-(7-fluoro-2-(2-methylpiperidin-4-yl)-1H-benzo[d]imidazol-5-yl)-2,8-dimethylimidazo[1,2-b]pyridazine]	100 to 1000
Cc1cn2nc(-c3cc(F)c4[nH]c(C5CCNC(C)(C)C5)nc4c3)cc(C)c2n1 (stereo not drawn) [Compound 419]	100 to 1000
Cc1cn2nc(-c3cc(F)c4[nH]c(C5CC6(CCNC6)C5)nc4c3)cc(C)c2n1 (stereo not drawn) [Compound 420, 6-(7-fluoro-2-(6-azaspiro[3.4]octan-2-yl)-1H-benzo[d]imidazol-5-yl)-2,8-dimethylimidazo[1,2-b]pyridazine]	100 to 1000
Cc1cn2nc(-c3cc(F)c4[nH]c(C5CC6(CCNCC6)C5)nc4c3)cc(C)c2n1 [Compound 421, 6-(7-fluoro-2-(7-azaspiro[3.5]nonan-2-yl)-1H-benzo[d]imidazol-5-yl)-2,8-dimethylimidazo[1,2-b]pyridazine]	100 to 1000
Cc1cn2nc(-c3cc(F)c4[nH]c(C5CCN(CC6CC6)CC5)nc4c3)cc(C)c2n1 [Compound 422, 6-(2-(1-(cyclopropylmethyl)piperidin-4-yl)-7-fluoro-1H-benzo[d]imidazol-5-yl)-2,8-dimethylimidazo[1,2-b]pyridazine]	< 100
Cc1cn2nc(-c3cc(F)c4[nH]c(C5CC6CC(N)C6C5)nc4c3)cc(C)c2n1 (stereo not drawn) [Compound 423, 3-(5-(2,8-dimethylimidazo[1,2-b]pyridazin-6-yl)-7-fluoro-1H-benzo[d]imidazol-2-yl)bicyclo[3.2.0]heptan-6-amine]	100 to 1000
Cc1cn2nc(-c3cc(F)c4[nH]c(C5CCC6(CC5)CNC6)nc4c3)cc(C)c2n1 [Compound 424, 6-(7-fluoro-2-(2-azaspiro[3.5]nonan-7-yl)-1H-benzo[d]imidazol-5-yl)-2,8-dimethylimidazo[1,2-b]pyridazine]	100 to 1000
CCN1CCC(c2nc3cc(-c4cc(C)c5nc(C)cn5n4)cc(F)c3[nH]2)CC1 [Compound 425, 6-(2-(1-ethylpiperidin-4-yl)-7-fluoro-1H-benzo[d]imidazol-5-yl)-2,8-dimethylimidazo[1,2-b]pyridazine]	100 to 1000
Cc1cn2nc(-c3cc(F)c4[nH]c(C5CCN(C6CCC6)CC5)nc4c3)cc(C)c2n1 [Compound 426, 6-(2-(1-cyclobutylpiperidin-4-yl)-7-fluoro-1H-benzo[d]imidazol-5-yl)-2,8-dimethylimidazo[1,2-b]pyridazine]	< 100
